Source: patent US11872262B2, “Means and methods for treating bacterial infections” (VIB VZW, priority 2017, dated 2024)
Residues, ends and D or L forms follow the SMILES beside them.

tested on: E. coli O157:H7; assay type: cell-based, Escherichia coli; conditions: screening-stage peptides tested at 1, 6, 12 and 25 μg/mL
Text: In the present invention we used the statistical thermodynamics algorithm TANGO to identify aggregation prone regions (APR) in the proteome of E. coli strain O157:H7. This yielded 3535 sequences of at least 6 amino acids in length and a TANGO score of at least 20%. In order to generate efficient aggregation seeds, we employed a previously devised tandem repeat design ^19, 21, in which the APRs are repeated once and separated by a linker. Given the length limitation on solid phase peptide synthesis with regard to yield and purity, we focused on the 1542 APRs with a length of 7 amino acids. In order to maximize the potential of these peptides to induce aggregation in E. coli, we ranked the APRs by their frequency of occurrence throughout the E. coli proteome, allowing a single amino acid mismatch, and selected the first 75 most frequently occurring sequences from this list (Table 4). In the design pattern, and in order to increase the colloidal stability of these aggregating peptides, the APRs are flanked by aggregation gatekeepers, a class of residues that was previously shown to reduce aggregation kinetics^22-24. […] To generate the tandem we used a single proline residue as a linker between the gatekeeper-flanked APRs. In addition to the 75 peptides generated in this fashion, we added 2 variants of each of the first 25 peptides in the list by randomly mutating one residue in the first APR repeat to arginine to further modulate the aggregation propensity of the peptides (Table 4). All the peptides were generated using solid phase synthesis at 200 nmole scale and dissolved in DMSO to a theoretical stock concentration of 2 mM (assuming 100% synthesis efficiency). Peptide activity on the growth of E. coli O157:H7 was measured at dilutions of the peptide corresponding to concentrations of 1, 6, 12 and 25 μg/mL. […] The Matthews Correlations Coefficient (MCC) with the measured activity was 0.1 at 12 μg/mL and 0.24 at 25 μg/mL.

First: CC(C)C[C@H](NC(=O)[C@H](C)NC(=O)[C@@H](N)CCCNC(=N)N)C(=O)N[C@@H](CC(C)C)C(=O)N[C@@H](CCCNC(=N)N)C(=O)N[C@H](C(=O)N[C@@H](CC(C)C)C(=O)N[C@@H](CC(C)C)C(=O)N[C@@H](CCCNC(=N)N)C(=O)N[C@@H](CCCNC(=N)N)C(=O)N1CCC[C@H]1C(=O)N[C@@H](CCCNC(=N)N)C(=O)N[C@@H](C)C(=O)N[C@@H](CC(C)C)C(=O)N[C@@H](CC(C)C)C(=O)N[C@H](C(=O)N[C@H](C(=O)N[C@@H](CC(C)C)C(=O)N[C@@H](CC(C)C)C(=O)N[C@@H](CCCNC(=N)N)C(=O)N[C@@H](CCCNC(=N)N)C(=O)O)[C@@H](C)O)[C@@H](C)O)[C@@H](C)O [Peptide P105] (H-RALLRTLLRRPRALLTTLLRR-OH; N-terminus and C-terminus assumed)
Second: CC(C)C[C@H](NC(=O)[C@H](C)NC(=O)[C@H](CCCNC(=N)N)NC(=O)[C@@H]1CCCN1C(=O)[C@H](CCCNC(=N)N)NC(=O)[C@H](CCCNC(=N)N)NC(=O)[C@H](CC(C)C)NC(=O)[C@H](CC(C)C)NC(=O)[C@@H](NC(=O)[C@@H](NC(=O)[C@H](CCCNC(=N)N)NC(=O)[C@H](CC(C)C)NC(=O)[C@H](C)NC(=O)[C@@H](N)CCCNC(=N)N)[C@@H](C)O)[C@@H](C)O)C(=O)N[C@@H](CC(C)C)C(=O)N[C@H](C(=O)N[C@H](C(=O)N[C@@H](CC(C)C)C(=O)N[C@@H](CC(C)C)C(=O)N[C@@H](CCCNC(=N)N)C(=O)N[C@@H](CCCNC(=N)N)C(=O)O)[C@@H](C)O)[C@@H](C)O [Peptide P80] (H-RALRTTLLRRPRALLTTLLRR-OH; N-terminus and C-terminus assumed)
The “E. coli O157 (apparent MIC in screen)” value of the first is 4.2-fold lower: 6 mg/L for the first, 25 mg/L for the second.

`CC(C)C[C@H](NC(=O)[C@H](C)NC(=O)[C@@H](N)CCCNC(=N)N)C(=O)N[C@@H](CC(C)C)C(=O)N[C@H](C(=O)N[C@@H](C)C(=O)N[C@@H](CCCNC(=N)N)C(=O)N[C@@H](CC(C)C)C(=O)N[C@@H](CCCNC(=N)N)C(=O)N[C@@H](CCCNC(=N)N)C(=O)N1CCC[C@H]1C(=O)N[C@@H](CCCNC(=N)N)C(=O)N[C@@H](C)C(=O)N[C@@H](CC(C)C)C(=O)N[C@@H](CC(C)C)C(=O)N[C@H](C(=O)N[C@@H](C)C(=O)N[C@H](C(=O)N[C@@H](CC(C)C)C(=O)N[C@@H](CCCNC(=N)N)C(=O)N[C@@H](CCCNC(=N)N)C(=O)O)C(C)C)[C@@H](C)O)[C@@H](C)O` [Peptide P91] (H-RALLTARLRRPRALLTAVLRR-OH; N-terminus and C-terminus assumed) and `CC(C)C[C@H](NC(=O)[C@H](C)NC(=O)[C@H](CC(C)C)NC(=O)[C@@H](NC(=O)[C@H](C)NC(=O)[C@H](CO)NC(=O)[C@H](CCCNC(=N)N)NC(=O)[C@@H]1CCCN1C(=O)[C@H](CCCNC(=N)N)NC(=O)[C@H](CCCNC(=N)N)NC(=O)[C@H](CC(C)C)NC(=O)[C@H](CC(C)C)NC(=O)[C@H](C)NC(=O)[C@H](CC(C)C)NC(=O)[C@H](CCCNC(=N)N)NC(=O)[C@H](C)NC(=O)[C@H](CO)NC(=O)[C@@H](N)CCCNC(=N)N)C(C)C)C(=O)N[C@@H](CC(C)C)C(=O)N[C@@H](CCCNC(=N)N)C(=O)N[C@@H](CCCNC(=N)N)C(=O)O` [Peptide P93] (H-RSARLALLRRPRSAVLALLRR-OH; N-terminus and C-terminus assumed) are the same in “E. coli O157 (apparent MIC in screen)” value: 25 mg/L for the first, 25 mg/L for the second.

First: CC(C)C[C@H](NC(=O)[C@H](C)NC(=O)[C@H](CCCNC(=N)N)NC(=O)[C@@H]1CCCN1C(=O)[C@H](CCCNC(=N)N)NC(=O)[C@H](CCCNC(=N)N)NC(=O)[C@H](CC(C)C)NC(=O)[C@H](CC(C)C)NC(=O)[C@H](CC(C)C)NC(=O)[C@H](CO)NC(=O)[C@@H](NC(=O)[C@H](CC(C)C)NC(=O)[C@H](C)NC(=O)[C@@H](N)CCCNC(=N)N)C(C)C)C(=O)N[C@H](C(=O)N[C@@H](CO)C(=O)N[C@@H](CC(C)C)C(=O)N[C@@H](CC(C)C)C(=O)N[C@@H](CC(C)C)C(=O)N[C@@H](CCCNC(=N)N)C(=O)N[C@@H](CCCNC(=N)N)C(=O)O)C(C)C [Peptide P58] (H-RALVSLLLRRPRALVSLLLRR-OH; N-terminus and C-terminus assumed)
Second: CC(C)C[C@H](NC(=O)[C@H](C)NC(=O)[C@H](CC(C)C)NC(=O)[C@H](CCCNC(=N)N)NC(=O)[C@@H]1CCCN1C(=O)[C@H](CCCNC(=N)N)NC(=O)[C@H](CCCNC(=N)N)NC(=O)[C@H](CC(C)C)NC(=O)[C@H](CC(C)C)NC(=O)[C@H](CC(C)C)NC(=O)[C@H](C)NC(=O)[C@H](CC(C)C)NC(=O)[C@H](C)NC(=O)[C@H](CC(C)C)NC(=O)[C@@H](N)CCCNC(=N)N)C(=O)N[C@@H](C)C(=O)N[C@@H](CC(C)C)C(=O)N[C@@H](CC(C)C)C(=O)N[C@@H](CC(C)C)C(=O)N[C@@H](CCCNC(=N)N)C(=O)N[C@@H](CCCNC(=N)N)C(=O)O [Peptide P4] (H-RLALALLLRRPRLALALLLRR-OH; N-terminus and C-terminus assumed)
The “E. coli O157 (apparent MIC in screen)” value of the first is 2-fold higher: 12 mg/L for the first, 6 mg/L for the second.

First: CC(C)C[C@H](NC(=O)CNC(=O)[C@H](CCCNC(=N)N)NC(=O)[C@@H]1CCCN1C(=O)[C@H](CCCNC(=N)N)NC(=O)[C@H](CCCNC(=N)N)NC(=O)[C@H](CCC(N)=O)NC(=O)[C@H](CC(C)C)NC(=O)[C@H](C)NC(=O)[C@H](CCCNC(=N)N)NC(=O)[C@H](CC(C)C)NC(=O)[C@H](CC(C)C)NC(=O)CNC(=O)[C@@H](N)CCCNC(=N)N)C(=O)N[C@@H](CC(C)C)C(=O)N[C@@H](CC(C)C)C(=O)N[C@@H](C)C(=O)N[C@@H](CC(C)C)C(=O)N[C@@H](CCC(N)=O)C(=O)N[C@@H](CCCNC(=N)N)C(=O)N[C@@H](CCCNC(=N)N)C(=O)O [Peptide P124] (H-RGLLRALQRRPRGLLLALQRR-OH; N-terminus and C-terminus assumed)
Second: CC(C)C[C@H](NC(=O)[C@H](C)NC(=O)[C@@H](NC(=O)[C@H](CC(C)C)NC(=O)[C@H](CCC(N)=O)NC(=O)[C@H](CCCNC(=N)N)NC(=O)[C@@H]1CCCN1C(=O)[C@H](CCCNC(=N)N)NC(=O)[C@H](CCCNC(=N)N)NC(=O)[C@@H](NC(=O)[C@H](CCCNC(=N)N)NC(=O)[C@H](CC(C)C)NC(=O)[C@H](C)NC(=O)[C@@H](NC(=O)[C@H](CC(C)C)NC(=O)[C@H](CCC(N)=O)NC(=O)[C@@H](N)CCCNC(=N)N)C(C)C)C(C)C)C(C)C)C(=O)N[C@@H](CC(C)C)C(=O)N[C@H](C(=O)N[C@@H](CCCNC(=N)N)C(=O)N[C@@H](CCCNC(=N)N)C(=O)O)C(C)C [Peptide P117] (H-RQLVALRVRRPRQLVALLVRR-OH; N-terminus and C-terminus assumed)
The “E. coli O157 (apparent MIC in screen)” value of the first is 2.1-fold lower: 12 mg/L for the first, 25 mg/L for the second.

`CC[C@H](C)[C@H](NC(=O)[C@H](CC(C)C)NC(=O)[C@H](CC(C)C)NC(=O)[C@H](C)NC(=O)[C@H](CCCNC(=N)N)NC(=O)[C@@H]1CCCN1C(=O)[C@H](CCCNC(=N)N)NC(=O)[C@H](CCCNC(=N)N)NC(=O)[C@H](CC(C)C)NC(=O)[C@H](CC(C)C)NC(=O)[C@@H](NC(=O)[C@@H](NC(=O)[C@H](CC(C)C)NC(=O)[C@H](CC(C)C)NC(=O)[C@H](C)NC(=O)[C@@H](N)CCCNC(=N)N)[C@@H](C)CC)[C@@H](C)O)C(=O)N[C@H](C(=O)N[C@@H](CC(C)C)C(=O)N[C@@H](CC(C)C)C(=O)N[C@@H](CCCNC(=N)N)C(=O)N[C@@H](CCCNC(=N)N)C(=O)O)[C@@H](C)O` [Peptide P23] (H-RALLITLLRRPRALLITLLRR-OH; N-terminus and C-terminus assumed) and `CC(C)C[C@H](NC(=O)[C@H](CCC(N)=O)NC(=O)[C@H](CCCNC(=N)N)NC(=O)[C@@H]1CCCN1C(=O)[C@H](CCCNC(=N)N)NC(=O)[C@H](CCCNC(=N)N)NC(=O)[C@H](CC(C)C)NC(=O)[C@H](CC(C)C)NC(=O)[C@@H](NC(=O)[C@H](CC(C)C)NC(=O)[C@H](CC(C)C)NC(=O)[C@H](CC(C)C)NC(=O)[C@H](CCC(N)=O)NC(=O)[C@@H](N)CCCNC(=N)N)[C@@H](C)O)C(=O)N[C@@H](CC(C)C)C(=O)N[C@@H](CC(C)C)C(=O)N[C@H](C(=O)N[C@@H](CC(C)C)C(=O)N[C@@H](CC(C)C)C(=O)N[C@@H](CCCNC(=N)N)C(=O)N[C@@H](CCCNC(=N)N)C(=O)O)[C@@H](C)O` [Peptide P72] (H-RQLLLTLLRRPRQLLLTLLRR-OH; N-terminus and C-terminus assumed) are the same in “E. coli O157 (apparent MIC in screen)” value: 25 mg/L for the first, 25 mg/L for the second.

For `CC(C)C[C@H](NC(=O)CNC(=O)[C@H](CC(C)C)NC(=O)[C@@H](NC(=O)[C@H](C)NC(=O)[C@H](CCCNC(=N)N)NC(=O)[C@@H]1CCCN1C(=O)[C@H](CCCNC(=N)N)NC(=O)[C@H](CCCNC(=N)N)NC(=O)[C@H](C)NC(=O)[C@H](CC(C)C)NC(=O)[C@H](CC(C)C)NC(=O)CNC(=O)[C@H](CCCNC(=N)N)NC(=O)[C@@H](NC(=O)[C@H](C)NC(=O)[C@@H](N)CCCNC(=N)N)C(C)C)C(C)C)C(=O)N[C@@H](CC(C)C)C(=O)N[C@@H](C)C(=O)N[C@@H](CCCNC(=N)N)C(=O)N[C@@H](CCCNC(=N)N)C(=O)O` [Peptide P88] (H-RAVRGLLARRPRAVLGLLARR-OH; N-terminus and C-terminus assumed), the “E. coli O157 (apparent MIC in screen)” value was 25 mg/L.
